In this experiment the target is T1, LDH from rabbit muscle (LDH-A) (Oryctolagus cuniculus, UniProt P13491).
T1 construct: gene LDHA; native commercial enzyme from rabbit muscle (Sigma-Aldrich), homotetramer
Nature of the experiment: spectrophotometric NADH absorbance decrease at […] nm, initial rate. The class given is biochemical.

SMILES strings stand for the structures.

As for `O=S(=O)(O)CCSc1nc2ccccc2s1` [compound 4, 2-(benzothiazol-2-ylsulfanyl)-ethanesulfonate], the midpoint of inhibition, the IC50, lay at 1200 µM.

For the origin of these results see PMC5081701, “Identification of New Structural Fragments for the Design of Lactate Dehydrogenase A Inhibitors” (Acta Naturae, 2016).
